Columns and labels:
Assay type in all cases: in vivo
[1] = test system: Matricaria inodora; test: Herbicidal post-emergence action (greenhouse pots), MATIN; conditions: 1280 g/ha, visual rating about 3 weeks after treatment vs untreated controls
Excerpt: (§1) In the examples and tables below, the following abbreviations are used: • Undesired Plants/Weeds: • ABUTH: Abutilon theophrasti • AGSTE: Agrostis tenuis • AMARE Amaranthus retroflexus • ECHCG: Echinochloa crus-galli • LOLRI: Lolium rigidum • MATIN: Matricaria inodora • POAAN: Poa annua • SETVI: Setaria viridis • STEME: Stellaria media A. Herbicidal Early Post-Emergence Action Seeds of mono- and dicotyledonous weed plants were placed in plastic pots in sandy loam soil (doubly sown with in each case one species of mono- or dicotyledonous weed plants per pot), covered with soil and cultivated in a greenhouse under controlled growth conditions. 2 to 3 weeks after sowing, the test plants were treated at the one-leaf stage. The compounds of the invention, formulated in the form of wettable powders (WP) or as emulsion concentrates (EC), were applied onto the green parts of the plants as aqueous suspension or emulsion with addition of 0.5% additive at a water application rate of 600 liters per hectare (converted). After the test plants had been kept in the greenhouse under optimum growth conditions for about 3 weeks, the activity of the preparations was rated visually in comparison to untreated controls. For example, 100% activity=the plants have died, 0% activity=like untreated control plants. Tables B1-B8 below show the effects of selected compounds of the general formula (I) according to Table 1 above on various harmful plants and an application rate corresponding to 1280 g/ha, which were obtained by the experimental procedure mentioned above.

[2] = test system: Poa annua; test: Herbicidal early post-emergence action (96-well microtiter plates), POAAN; conditions: 1900 g/ha, scored 9 to 12 days after treatment, 100% = plants have died, 0% = like untreated control plants
How it was run: (§2)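 Weed seeds grown in quartz sand in 96-well microtiter plates in a climate chamber and treated at the cotyledon stage, 5 to 7 days after sowing, with EC formulations at 2200 L/ha water and a rate equivalent to 1900 g/ha. Visual scoring after 9 to 12 days against untreated controls (0% = control, 100% = dead).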

[3] = test system: Agrostis tenuis; test: Herbicidal early post-emergence action (96-well microtiter plates), AGSTE; conditions: 1900 g/ha, scored 9 to 12 days after treatment, 100% = plants have died, 0% = like untreated control plants
How it was run: as §2

[4] = test system: Stellaria media; test: Herbicidal post-emergence action (greenhouse pots), STEME; conditions: 1280 g/ha, visual rating about 3 weeks after treatment vs untreated controls
How it was run: (§3)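 Activity is a visual percentage score (0% = like untreated controls, 100% = plants died) taken about 3 weeks after treatment. Plants grown in sandy loam under greenhouse conditions received 1280 g/ha onto green parts at the one-leaf stage, formulated as WP or EC with 0.5% additive.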

[5] = test system: Stellaria media; test: Herbicidal pre-emergence action (greenhouse pots), STEME; conditions: 1280 g/ha, visual scoring after about 3 weeks vs untreated controls
How it was run: (§4)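 Weed seeds were sown in sandy loam and covered with soil. Compounds formulated as WP or EC were applied to the covering soil surface as aqueous suspension or emulsion with 0.5% additive at 600 L/ha water, 1280 g/ha. After about 3 weeks in the greenhouse, damage was scored visually as % versus untreated controls.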

[6] = test system: Poa annua; test: Herbicidal pre-emergence action (greenhouse pots), POAAN; conditions: 1280 g/ha, visual scoring after about 3 weeks vs untreated controls
How it was run: as §4

[7] = test system: Echinochloa crus-galli; test: Herbicidal post-emergence action (greenhouse pots), ECHCG; conditions: 1280 g/ha, rated after about 3 weeks, 100% = plants have died, 0% = like untreated control plants
Excerpt: as §1

[8] = test system: Matricaria inodora; test: Herbicidal pre-emergence action (greenhouse pots), MATIN; conditions: 1280 g/ha, visual scoring after about 3 weeks vs untreated controls
How it was run: as §4

[9] = test system: Amaranthus retroflexus; test: Herbicidal post-emergence action (greenhouse pots), AMARE; conditions: 1280 g/ha, visual rating about 3 weeks after treatment vs untreated controls
How it was run: as §3

[10] = test system: Setaria viridis; test: Herbicidal pre-emergence action (greenhouse pots), SETVI; conditions: 1280 g/ha, visual scoring after about 3 weeks vs untreated controls
How it was run: as §4

[11] = test system: Poa annua; test: Herbicidal post-emergence action (greenhouse pots), POAAN; conditions: 1280 g/ha, visual rating about 3 weeks after treatment vs untreated controls
Excerpt: as §1

[12] = test system: Echinochloa crus-galli; test: Herbicidal pre-emergence action (greenhouse pots), ECHCG; conditions: 1280 g/ha, visual scoring after about 3 weeks vs untreated controls
How it was run: as §4

[13] = test system: Abutilon theophrasti; test: Herbicidal post-emergence action (greenhouse pots), ABUTH; conditions: 1280 g/ha, visual rating about 3 weeks after treatment vs untreated controls
How it was run: as §3

[14] = test system: Amaranthus retroflexus; test: Herbicidal pre-emergence action (greenhouse pots), AMARE; conditions: 1280 g/ha, visual scoring after about 3 weeks vs untreated controls
How it was run: as §4

[15] = test system: Lolium rigidum; test: Herbicidal pre-emergence action (greenhouse pots), LOLRI; conditions: 1280 g/ha, visual scoring after about 3 weeks vs untreated controls
Excerpt: (§5) In the examples and tables below, the following abbreviations are used: • Undesired Plants/Weeds: • ABUTH: Abutilon theophrasti • AGSTE: Agrostis tenuis • AMARE Amaranthus retroflexus • ECHCG: Echinochloa crus-galli • LOLRI: Lolium rigidum • MATIN: Matricaria inodora • POAAN: Poa annua • SETVI: Setaria viridis • STEME: Stellaria media A. Herbicidal Early Post-Emergence Action Seeds of mono- and dicotyledonous weed plants were placed in plastic pots in sandy loam soil (doubly sown with one species each of mono- or dicotyledonous weed plants per pot) and covered with soil. The compounds of the invention, formulated in the form of wettable powders (WP) or as emulsion concentrates (EC), were then applied onto the surface of the covering soil as aqueous suspension or emulsion with addition of 0.5% additive at a water application rate of 600 liters per hectare (converted). After the treatment, the pots were placed in a greenhouse and kept under good growth conditions for the test plants. After about 3 weeks, the effect of the preparations was scored visually in comparison with untreated controls as percentages. For example, 100% activity=the plants have died, 0% activity=like untreated control plants. Tables C1-C8 below show the effects of selected compounds of the general formula (I) according to Table 1 above on various harmful plants and an application rate corresponding to 1280 g/ha, which were obtained by the experimental procedure mentioned above.

[16] = test system: Setaria viridis; test: Herbicidal post-emergence action (greenhouse pots), SETVI; conditions: 1280 g/ha, rated after about 3 weeks, 100% = plants have died, 0% = like untreated control plants
Excerpt: as §1

[17] = test system: Abutilon theophrasti; test: Herbicidal pre-emergence action (greenhouse pots), ABUTH; conditions: 1280 g/ha, visual scoring after about 3 weeks vs untreated controls
Excerpt: as §5

SMILES	herbicidal activity MATIN [1] [%]	POAAN (herbicidal activity, scored visually in comparison to untreated controls) [2] [%]	AGSTE (herbicidal activity, scored visually in comparison to untreated controls) [3] [%]	herbicidal activity STEME [4] [%]	herbicidal activity STEME [5] [%]	herbicidal activity POAAN [6] [%]	ECHCG (herbicidal activity, rated visually in comparison to untreated controls) [7] [%]	herbicidal activity MATIN [8] [%]	herbicidal activity AMARE [9] [%]	herbicidal activity SETVI [10] [%]	herbicidal activity POAAN [11] [%]	herbicidal activity ECHCG [12] [%]	herbicidal activity ABUTH [13] [%]	herbicidal activity AMARE [14] [%]	herbicidal activity LOLRI [15] [%]	SETVI (herbicidal activity, rated visually in comparison to untreated controls) [16] [%]	herbicidal activity ABUTH [17] [%]
Clc1cnc(Nc2ccccc2Oc2ccccc2)nc1 [Example 1-336]	100	100	100	100	100												
N#Cc1cccc(Nc2ncc(F)cn2)c1Oc1ccc(F)c(F)c1F [Example 1-374]	100	100	100	100	100	100	100	100	100	100	100	100	100	100			
N#Cc1cccc(Nc2ncc(F)cn2)c1Oc1ccc(Cl)cc1 [Example 1-269]		100	80	100	100	100	90	100	100	100	90	90	90	100	90	90	90
N#Cc1cccc(Nc2ncc(F)cn2)c1Oc1cc(F)c(F)cc1F [Example 1-375]		100	100	100	100	100		100	100	100	100	100	90	100	90		100
CCc1cnc(Nc2cccc(C#N)c2Oc2ccc(F)cc2)nc1 [Example 1-310]	100		80	90													
